# Test results from patent US7425551B2, “Malonamide derivatives” (Hoffmann-La Roche Inc., priority 2006, dated 2008).
# Molecular target: T1, γ-secretase (Homo sapiens, UniProt P49768)
# T1 construct: uses a HEK293 membrane fraction as a source of γ-secretase; endogenous in cells; host or cells: HEK293 (microsomal membrane fraction, solubilised in 0.25% CHAPSO)
# Assay: in vitro assay of γ-secretase activity (HEK293 membrane fraction, recombinant APP substrate, Abeta ELISA)
# Assay type: biochemical
# Details: γ-secretase inhibition; HEK293 membrane fraction solubilized in 0.25% CHAPSO, recombinant human APP C-terminal 100 amino acids substrate, Abeta detected by ELISA
# Text: Description of 1γ-Secretase Assay The activity of test compounds can be evaluated in assays which measure the proteolytic cleavage of suitable substrates by γ-secretase activity. These can be cellular assays where e.g., a substrate of the γ-secretase is fused in its cytoplasmic domain to a transcription factor. Cells are transfected with this fusion gene and a reporter gene, e.g., firefly luciferase, which expression is enhanced by the transcription factor. Cleavage of the fused substrate by γ-secretase will lead to expression of the reporter gene which can be monitored in appropriate assays. The γ-secretase activity can also be determined in cell-free in vitro assays where e.g., a cell lysate containing the γ-secretase complex is incubated with a suitable APP-derived substrate which is cleaved to the Abeta peptides. The amount of produced peptides can be determined with specific ELISA assays. Cell lines of neuronal origin secrete Abeta peptides which can be measured with the specific ELISA assay. Treatment with compounds which inhibit γ-secretase leads to a reduction of secreted Abeta thus providing a measure of inhibition. The in vitro assay of γ-secretase activity uses a HEK293 membrane fraction as a source of γ-secretase and a recombinant APP substrate. Latter consist of the C-terminal 100 amino acids of human APP fused to a 6× Histidin tail for purification which is expressed in E. coli in a regulatable expression vector, e.g. pEt15. This recombinant protein corresponds to the truncated APP fragment which results after […] of the extracellular domain and which constitutes the γ-secretase substrate. The assay principle is described in Li Y M et al, PNAS 97(11), 6138-6143 (2000). Hek293 cells are mechanically disrupted and the microsomal fraction is isolated by differential centrifugation. The membranes are solubilized in detergent (0.25% CHAPSO) and incubated with the APP substrate. The Abeta peptides which are produced by γ-secretase cleavage of the substrate are detected by specific ELISA assays as described (Brockhaus M et al, Neuroreport 9(7), 1481-1486 (1998).
row,SMILES,IC50 [nM]
1,"COCCN1C(=O)[C@@H](NC(=O)C(C)(O)C(=O)NCC(F)(F)C(F)(F)F)c2ccccc2-c2ccccc21 (single isomer, unassigned; epimer b) [Example 46]",2
2,CCOC(C(=O)NCC(F)(F)C(F)(F)F)C(=O)N[C@@H]1C(=O)N(CCOCc2ccccc2)c2ccccc2-c2ccccc21 (stereo partly drawn) [Example 14],8
3,"O=C(CC(=O)N[C@@H]1C(=O)N(CCO)c2ccccc2-c2ccccc21)NCCC(F)(F)C(F)(F)F [Example 31, N—[(S)-5-(2-Hydroxy-ethyl)-6-oxo-6,7-dihydro-5H-dibenzo[b,d]azepin-7-yl]-N′-(3,3,4,4,4-pentafluoro-butyl)-malonamide]",200
4,"CC(C)(C(=O)NCC(F)(F)C(F)(F)F)C(=O)N[C@@H]1C(=O)N(CCOCc2ccccc2)c2ccccc2-c2ccccc21 [Example 4, N—[(S)-5-(2-Benzyloxy-ethyl)-6-oxo-6,7-dihydro-5H-dibenzo[b,d]azepin-7-yl]-2,2-dimethyl-N′-(2,2,3,3,3-pentafluoro-propyl)-malonamide]",9
5,"C[C@](F)(C(=O)NCCC(F)(F)C(F)(F)F)C(=O)N[C@@H]1C(=O)N(CCO)c2ccccc2-c2ccccc21 [Example 50, (S)-2-Fluoro-N—[(S)-5-(2-hydroxy-ethyl)-6-oxo-6,7-dihydro-5H-dibenzo[b,d]azepin-7-yl]-2-methyl-N′-(3,3,4,4,4-pentafluoro-butyl)-malonamide]",16
6,"C[C@H](OC(=O)NCCF)C(=O)N[C@@H]1C(=O)N(CCO)c2ccccc2-c2ccccc21 [Example 47, (2-Fluoro-ethyl)-carbamic acid (S)-1-[(S)-5-(2-hydroxy-ethyl)-6-oxo-6,7-dihydro-5H-dibenzo[b,d]azepin-7-ylcarbamoyl]-ethyl ester]",755
7,"C[C@@](F)(C(=O)NCCC(F)(F)F)C(=O)N[C@@H]1C(=O)N(CCOCc2ccccc2)c2ccccc2-c2ccccc21 [Example 51, (R)—N—[(S)-5-(2-Benzyloxy-ethyl)-6-oxo-6,7-dihydro-5H-dibenzo[b,d]azepin-7-yl]-2-fluoro-2-methyl-N′-(3,3,3-trifluoro-propyl)-malonamide]",7
8,"C[C@H](OC(=O)NCCC(F)(F)F)C(=O)N[C@@H]1C(=O)N(CCO)c2ccccc2-c2ccccc21 [Example 39, (3,3,3-Trifluoro-propyl)-carbamic acid (S)-1-[(S)-5-(2-hydroxy-ethyl)-6-oxo-6,7-dihydro-5H-dibenzo[b,d]azepin-7-ylcarbamoyl]-ethyl ester]",16
9,"CCOC(C(=O)NCC(F)(F)C(F)(F)F)C(=O)N[C@@H]1C(=O)N(CCO)c2ccccc2-c2ccccc21 (single isomer, unassigned; epimer b) [Example 19, [R or S]2-Ethoxy-N—[(S)-5-(2-hydroxy-ethyl)-6-oxo-6,7-dihydro-5H-dibenzo[b,d]azepin-7-yl]-N′-(2,2,3,3,3-pentafluoro-propyl)-malonamide, epimer B]",4
10,"CC(C)(C(=O)NCC(F)(F)C(F)(F)F)C(=O)N[C@@H]1C(=O)N(CC(O)C(F)(F)F)c2ccccc2-c2ccccc21 (stereo partly drawn) [Example 72, 2,2-Dimethyl-N—[(S)-6-oxo-5-(3,3,3-trifluoro-2-hydroxy-propyl)-6,7-dihydro-5H-dibenzo[b,d]azepin-7-yl]-N′-(2,2,3,3,3-pentafluoro-propyl)-malonamide]",1

# Further compounds by falling IC50, results first:
row,IC50 [nM],SMILES
1,157,"C[C@](F)(C(=O)NCC(F)(F)F)C(=O)N[C@@H]1C(=O)N(CCO)c2ccccc2-c2ccccc21 [Example 49, (S)-2-Fluoro-N—[(S)-5-(2-hydroxy-ethyl)-6-oxo-6,7-dihydro-5H-dibenzo[b,d]azepin-7-yl]-2-methyl-N′-(2,2,2-trifluoro-ethyl)-malonamide]"
2,13,"C[C@H](OC(=O)NCCC(F)(F)C(F)(F)F)C(=O)N[C@@H]1C(=O)N(CCOCc2ccccc2)c2ccccc2-c2ccccc21 [Example 36, (3,3,4,4,4-Pentafluoro-butyl)-carbamic acid (S)-1-[(S)-5-(2-benzyloxy-ethyl)-6-oxo-6,7-dihydro-5H-dibenzo[b,d]azepin-7-ylcarbamoyl]-ethyl ester]"
3,12,"CC(O)(C(=O)NCCC(F)(F)C(F)(F)F)C(=O)N[C@@H]1C(=O)N(CCOCc2ccccc2)c2ccccc2-c2ccccc21 (stereo partly drawn) [Example 55, N—[(S)-5-(2-Benzyloxy-ethyl)-6-oxo-6,7-dihydro-5H-dibenzo[b,d]azepin-7-yl]-2-hydroxy-2-methyl-N′-(3,3,4,4,4-pentafluoro-butyl)-malonamide]"
4,9,"COCCN1C(=O)[C@@H](NC(=O)C(OC)C(=O)NCC(F)(F)C(F)(F)F)c2ccccc2-c2ccccc21 (stereo partly drawn) [Example 68, 2-Methoxy-N—[(S)-5-(2-methoxy-ethyl)-6-oxo-6,7-dihydro-5H-dibenzo[b,d]azepin-7-yl]-N′-(2,2,3,3,3-pentafluoro-propyl)-malonamide]"
5,8,"C[C@](O)(C(=O)NCC(F)(F)F)C(=O)N[C@@H]1C(=O)N(CCOCc2ccccc2)c2ccccc2-c2ccccc21 [Example 58, (S)—N—[(S)-5-(2-Benzyloxy-ethyl)-6-oxo-6,7-dihydro-5H-dibenzo[b,d]azepin-7-yl]-2-hydroxy-2-methyl-N′-(2,2,2-trifluoro-ethyl)-malonamide]"
6,7,"COC(C(=O)NCC(F)(F)C(F)(F)F)C(=O)N[C@@H]1C(=O)N(CCO)c2ccccc2-c2ccccc21 (stereo partly drawn) [Example 11, N—[(S)-5-(2-Hydroxy-ethyl)-6-oxo-6,7-dihydro-5H-dibenzo[b,d]azepin-7-yl]-2-methoxy-N′-(2,2,3,3,3-pentafluoro-propyl)-malonamide]"
7,6,"C[C@H](OC(=O)NCC(F)(F)C(F)(F)F)C(=O)N[C@@H]1C(=O)N(CCO)c2ccccc2-c2ccccc21 [Example 8, (2,2,3,3,3-Pentafluoro-propyl)-carbamic acid (S)-1-[(S)-5-(2-hydroxy-ethyl)-6-oxo-6,7-dihydro-5H-dibenzo[b,d]azepin-7-ylcarbamoyl]-ethyl ester]"
8,5,"COCCN1C(=O)[C@@H](NC(=O)C(C)(C)C(=O)NCC(F)(F)C(F)(F)F)c2ccccc2-c2ccccc21 [Example 67, N—[(S)-5-(2-Methoxy-ethyl)-6-oxo-6,7-dihydro-5H-dibenzo[b,d]azepin-7-yl]-2,2-dimethyl-N′-(2,2,3,3,3-pentafluoro-propyl)-malonamide]"
9,4,"CCOC(C(=O)NCC(F)(F)C(F)(F)F)C(=O)N[C@@H]1C(=O)N(CCO)c2ccccc2-c2ccccc21 (stereo partly drawn) [Example 17, 2-Ethoxy-N—[(S)-5-(2-hydroxy-ethyl)-6-oxo-6,7-dihydro-5H-dibenzo[b,d]azepin-7-yl]-N′-(2,2,3,3,3-pentafluoro-propyl)-malonamide]"
10,1,"C[C@@](F)(C(=O)NCCC(F)(F)C(F)(F)F)C(=O)N[C@@H]1C(=O)N(CCO)c2ccccc2-c2ccccc21 [Example 42, (R)-2-Fluoro-N—[(S)-5-(2-hydroxy-ethyl)-6-oxo-6,7-dihydro-5H-dibenzo[b,d]azepin-7-yl]-2-methyl-N′-(3,3,4,4,4-pentafluoro-butyl)-malonamide]"
11,1,"CC(C(=O)NCC(F)(F)C(F)(F)F)C(=O)N[C@@H]1C(=O)N(CCO)c2ccccc2-c2ccccc21 (stereo partly drawn) [Example 3, N—[(S)-5-(2-Hydroxy-ethyl)-6-oxo-6,7-dihydro-5H-dibenzo[b,d]azepin-7-yl]-2-methyl-N ′-(2,2,3,3,3-pentafluoro-propyl)-malonamide]"
